Columns and labels:
Type in all cases: biochemical
SHP1 = molecular target: T1, SHP1 (Homo sapiens, UniProt P29350); assay: Tyrosine phosphatase selectivity (pNPP substrate), SHP1; details: for IC50: SHP1, pNPP substrate; for IC50PTP/IC50SHP2 SHP1: selectivity ratio SHP1 over SHP2
T1 construct: made in house; host or cells: E. coli
Protocol: (§1) This experiment evaluated the selectivity of the disclosed compounds against tyrosine phosphatases, including SHP1, HePTP, Laforin, LMWPTP, LYP, PTP1B, PRL2, SSU72, VHR, FAP1, STEP, CDC14A, CD45, MEG2, and PP5, all expressed and purified from E. coli.
(§2) Phosphatase activity was measured using p-nitrophenyl phosphate (pNPP) (Fisher Scientific) as the substrate in 50 mM 3,3-dimethylglutaric acid buffer (pH 7.0, containing 1 mM EDTA), with ionic strength adjusted to 0.15 M with NaCl. […] After 10-60 minutes, the reaction was quenched by adding 20 µL of 5 N NaOH. Wells without enzyme were used as controls for correction. The amount of the product, p-nitrophenol, was determined by measuring the absorbance at 405 nm using a Spectra MAX340 microplate spectrophotometer (Molecular Devices), with a molar extinction coefficient of 18000 M^-1cm^-1.
(§3) Data were analyzed using GraphPad Prism software. Dose-response curves were obtained by fitting data using the nonlinear S-curve regression Dose-response-inhibition equation, and IC50 values were calculated.

HePTP = molecular target: T2, HePTP (Homo sapiens, UniProt P35236); assay: Tyrosine phosphatase selectivity (pNPP substrate), HePTP; details: for IC50: HePTP, pNPP substrate; for IC50PTP/IC50SHP2 HePTP: selectivity ratio HePTP over SHP2
T2 construct: made in house; host or cells: E. coli
T2 sequence (P35236 1-360): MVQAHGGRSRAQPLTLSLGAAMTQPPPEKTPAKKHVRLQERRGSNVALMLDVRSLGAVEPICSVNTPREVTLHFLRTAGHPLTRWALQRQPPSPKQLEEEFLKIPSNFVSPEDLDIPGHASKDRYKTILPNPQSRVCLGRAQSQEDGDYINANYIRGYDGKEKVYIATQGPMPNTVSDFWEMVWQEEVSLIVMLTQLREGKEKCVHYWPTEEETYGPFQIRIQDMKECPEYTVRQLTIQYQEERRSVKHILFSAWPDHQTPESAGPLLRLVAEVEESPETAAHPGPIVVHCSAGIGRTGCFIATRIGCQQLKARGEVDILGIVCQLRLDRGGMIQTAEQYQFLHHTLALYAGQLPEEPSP
Protocol: as §1, §2, §3

SSU72 = molecular target: T3, SSU72 (Homo sapiens, UniProt Q9NP77); assay: Tyrosine phosphatase selectivity (pNPP substrate), SSU72; details: for IC50: SSU72, pNPP substrate; for IC50PTP/IC50SHP2 SSU72: selectivity ratio SSU72 over SHP2
T3 construct: made in house; host or cells: E. coli
T3 sequence (Q9NP77 1-194): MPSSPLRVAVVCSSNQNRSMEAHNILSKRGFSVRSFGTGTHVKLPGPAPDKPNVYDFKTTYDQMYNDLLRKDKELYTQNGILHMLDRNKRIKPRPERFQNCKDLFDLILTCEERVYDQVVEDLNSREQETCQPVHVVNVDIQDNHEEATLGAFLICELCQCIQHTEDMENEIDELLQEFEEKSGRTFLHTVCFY
Protocol: as §1, §2, §3

VHR = molecular target: T4, VHR (Homo sapiens, UniProt P51452); assay: Tyrosine phosphatase selectivity (pNPP substrate), VHR; details: for IC50: VHR, pNPP substrate; for IC50PTP/IC50SHP2 VHR: selectivity ratio VHR over SHP2
T4 construct: made in house; host or cells: E. coli
Protocol: as §1, §2, §3

LMWPTP = molecular target: T5, LMWPTP (Homo sapiens, UniProt P24666); assay: Tyrosine phosphatase selectivity (pNPP substrate), LMWPTP; details: for IC50: LMPTP*, pNPP substrate; for IC50PTP/IC50SHP2 LMPTP*: selectivity ratio LMPTP* over SHP2
T5 construct: made in house; host or cells: E. coli
T5 sequence (P24666 1-158): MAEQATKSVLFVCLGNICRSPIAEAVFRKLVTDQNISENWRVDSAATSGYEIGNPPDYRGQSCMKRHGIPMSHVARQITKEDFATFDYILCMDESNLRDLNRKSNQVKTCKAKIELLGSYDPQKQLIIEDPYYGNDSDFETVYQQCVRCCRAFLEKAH
Protocol: as §1, §2, §3

LYP = molecular target: T6, LYP (Homo sapiens, UniProt Q9Y2R2); assay: Tyrosine phosphatase selectivity (pNPP substrate), LYP; details: for IC50: LYP, pNPP substrate; for IC50PTP/IC50SHP2 LYP: selectivity ratio LYP over SHP2
T6 construct: made in house; host or cells: E. coli
T6 sequence (Q9Y2R2 1-807): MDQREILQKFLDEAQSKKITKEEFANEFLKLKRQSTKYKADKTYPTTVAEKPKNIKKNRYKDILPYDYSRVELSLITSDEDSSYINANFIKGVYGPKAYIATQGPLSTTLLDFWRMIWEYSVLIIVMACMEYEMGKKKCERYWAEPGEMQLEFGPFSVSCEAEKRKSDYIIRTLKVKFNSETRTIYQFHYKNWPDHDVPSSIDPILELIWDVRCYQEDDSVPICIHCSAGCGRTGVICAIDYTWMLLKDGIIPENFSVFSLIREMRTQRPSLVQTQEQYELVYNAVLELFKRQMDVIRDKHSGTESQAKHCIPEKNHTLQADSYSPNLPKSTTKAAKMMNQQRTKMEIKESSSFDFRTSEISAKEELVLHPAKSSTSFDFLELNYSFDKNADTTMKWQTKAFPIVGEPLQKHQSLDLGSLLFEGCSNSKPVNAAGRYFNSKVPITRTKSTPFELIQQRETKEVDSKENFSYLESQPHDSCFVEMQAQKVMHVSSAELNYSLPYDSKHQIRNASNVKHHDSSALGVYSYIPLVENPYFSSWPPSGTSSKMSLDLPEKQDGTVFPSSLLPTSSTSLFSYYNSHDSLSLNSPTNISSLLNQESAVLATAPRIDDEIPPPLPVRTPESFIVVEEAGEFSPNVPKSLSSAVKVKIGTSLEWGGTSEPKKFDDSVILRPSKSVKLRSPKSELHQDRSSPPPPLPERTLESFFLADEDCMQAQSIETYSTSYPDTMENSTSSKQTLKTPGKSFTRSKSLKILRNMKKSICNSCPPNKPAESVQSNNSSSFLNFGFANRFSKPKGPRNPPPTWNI
Protocol: as §1, §2, §3

STEP = molecular target: T7, STEP (Homo sapiens, UniProt P54829); assay: Tyrosine phosphatase selectivity (pNPP substrate), STEP; details: for IC50: STEP, pNPP substrate; for IC50PTP/IC50SHP2 STEP: selectivity ratio STEP over SHP2
T7 construct: made in house; host or cells: E. coli
T7 sequence (P54829 1-565): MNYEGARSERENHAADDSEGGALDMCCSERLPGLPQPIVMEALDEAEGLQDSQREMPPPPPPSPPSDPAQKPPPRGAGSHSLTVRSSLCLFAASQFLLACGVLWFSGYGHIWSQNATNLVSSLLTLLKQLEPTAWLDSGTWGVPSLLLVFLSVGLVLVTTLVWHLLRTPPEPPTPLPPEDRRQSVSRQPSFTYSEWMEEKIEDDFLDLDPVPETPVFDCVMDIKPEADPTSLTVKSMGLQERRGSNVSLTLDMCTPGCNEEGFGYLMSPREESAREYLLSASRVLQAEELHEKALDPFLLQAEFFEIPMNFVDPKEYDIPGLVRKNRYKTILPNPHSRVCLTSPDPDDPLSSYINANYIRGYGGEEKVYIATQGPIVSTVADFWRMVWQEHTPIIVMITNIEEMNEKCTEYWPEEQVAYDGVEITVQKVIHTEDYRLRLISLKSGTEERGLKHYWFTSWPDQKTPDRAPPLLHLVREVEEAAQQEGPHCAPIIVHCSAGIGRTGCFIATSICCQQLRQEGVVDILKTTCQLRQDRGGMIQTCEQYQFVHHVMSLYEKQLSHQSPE
Protocol: as §1, §2, §3

T1 sequence (P29350 whole entry): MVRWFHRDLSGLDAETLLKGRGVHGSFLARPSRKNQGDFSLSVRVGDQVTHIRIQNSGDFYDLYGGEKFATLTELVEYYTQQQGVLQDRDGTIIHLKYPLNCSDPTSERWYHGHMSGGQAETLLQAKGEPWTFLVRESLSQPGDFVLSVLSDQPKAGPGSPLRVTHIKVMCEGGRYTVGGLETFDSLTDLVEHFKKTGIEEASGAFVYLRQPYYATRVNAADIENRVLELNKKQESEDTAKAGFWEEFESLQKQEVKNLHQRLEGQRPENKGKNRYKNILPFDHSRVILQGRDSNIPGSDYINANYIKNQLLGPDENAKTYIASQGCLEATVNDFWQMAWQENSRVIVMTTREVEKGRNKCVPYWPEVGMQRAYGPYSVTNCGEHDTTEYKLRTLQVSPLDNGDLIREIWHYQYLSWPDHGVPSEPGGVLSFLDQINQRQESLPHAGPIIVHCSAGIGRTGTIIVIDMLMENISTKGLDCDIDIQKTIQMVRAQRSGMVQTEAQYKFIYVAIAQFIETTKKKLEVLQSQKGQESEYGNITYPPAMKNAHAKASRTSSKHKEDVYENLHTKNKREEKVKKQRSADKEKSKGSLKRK
T4 sequence (P51452 whole entry, species assumed): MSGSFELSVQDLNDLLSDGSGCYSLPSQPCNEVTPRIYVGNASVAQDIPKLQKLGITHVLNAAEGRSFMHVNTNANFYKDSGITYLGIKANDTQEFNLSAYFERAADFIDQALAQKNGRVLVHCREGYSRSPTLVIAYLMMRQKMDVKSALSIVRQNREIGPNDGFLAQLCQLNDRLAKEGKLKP

| SMILES | IC50 (SHP1) [nM] | IC50PTP/IC50SHP2 SHP1 (SHP1) | IC50 (HePTP) [nM] | IC50PTP/IC50SHP2 HePTP (HePTP) | IC50 (SSU72) [nM] | IC50PTP/IC50SHP2 SSU72 (SSU72) | IC50 (VHR) [nM] | IC50PTP/IC50SHP2 VHR (VHR) | IC50 (LMWPTP) [nM] | IC50PTP/IC50SHP2 LMPTP* (LMWPTP) | IC50 (LYP) [nM] | IC50PTP/IC50SHP2 LYP (LYP) | IC50 (STEP) [nM] | IC50PTP/IC50SHP2 STEP (STEP) |
| --- | --- | --- | --- | --- | --- | --- | --- | --- | --- | --- | --- | --- | --- | --- |
| O=C(Nc1ccc(-c2oc3cc(F)c(-c4nnn[nH]4)cc3c2C2CCC2)cc1)C(=O)Nc1ccc(N2CCC3(CCOC3)CC2)cc1 [Example 125] | 170 | 3.3 | 35900 | 703.9 | > 100000 | 1960.8 | 88200 | 1729.4 | 2240 | 43.9 | 2500 | 49.0 | 6620 | 129.8 |
| Cn1c(-c2cccc(NC(=O)C(=O)Nc3ccc(-c4ccsc4)cc3)c2)c(I)c2cc(C(=O)O)c(O)cc21 [Example 11a-1, reference compound] | 800 | 7.4 | 1030 | 9.5 | 1300 | 12.0 | 3200 | 29.6 | 2340 | 21.6 | 1050 | 9.7 | 4000 | 37.0 |
| O=C(Nc1ccc(-c2cc3cc(F)c(-c4nnn[nH]4)cc3n2C2CCC2)cc1)C(=O)Nc1ccc(N2CCOCC2)cc1 [Example 47] | 120 | 1.9 | 800 | 12.6 | 90 | 1.4 | 1150 | 18.2 | 1090 | 17.3 | 189 | 3.0 | 770 | 12.2 |
| O=C(Nc1ccc(-c2ccsc2)cc1)C(=O)Nc1ccc(-c2cc3cc(F)c(-c4nnn[nH]4)nc3n2C2CCC2)cc1 [Example 132] | 600 | 22.2 | 5700 | 211.1 | < 3000 | 111.1 | 10300 | 381.5 | > 20000 | 740.7 | 500 | 18.5 | 10600 | 392.6 |
| Cn1cc(-c2ccc(NC(=O)C(=O)Nc3ccc(-c4cc5cc(F)c(-c6nnc(C(F)(F)F)[nH]6)cc5n4C4CCC4)cc3)cc2)cn1 [Example 124] | 5620 | 7.8 | > 100000 | 139.7 | > 100000 | 139.7 | > 100000 | 139.7 | > 20000 | 27.9 | > 100000 | 139.7 | > 100000 | 139.7 |
| O=C(Nc1ccc(-c2cc3cc(F)c(-c4nnn[nH]4)cc3n2C2CCC2)cc1)C(=O)Nc1ccc(N2CC3COCC3C2)cc1 (stereo not drawn) [Example 114] | 100 | 1.3 | 1060 | 14.7 | 90 | 1.2 | 2140 | 29.7 | 2130 | 29.5 | 100 | 1.3 | 1830 | 25.4 |
| CC1(n2c(-c3ccc(NC(=O)C(=O)Nc4ccc(N5CCC6(CCOC6)CC5)cc4)cc3)cc3cc(F)c(-c4nnn[nH]4)cc32)CCC1 [Example 68] | 383 | 8.0 | 1170 | 29.3 | – | – | > 25000 | 520.8 | 370 | 7.7 | 1540 | 32.1 | 8230 | 171.5 |

— EP4741383A1, “COMPOUND AND USE THEREOF AS ANTI-CANCER DRUG” (Tyligand Bioscience (Shanghai) Limited, priority 2023, dated 2025)
